Assay results as given in patent US6579899B1, “Composition for treatment of stress” (Massachusetts Institute of Technology, priority 1998, dated 2003).
Structures can show the parent of a compound that is named as a salt.

Columns and labels:
Assay type in all cases: in vivo, human
[1] = body weight in four month weight loss program; settings: for weight after 4 months: patient five, intramuscular 75 mg/day
Source text: (§1) A subgroup of obese individuals is identified, which individuals describe themselves as being unable to control their eating and who attempt to continue on a weight-reducing diet when experiencing emotional distress. […]
(§2) Objective measurements of emotional distress are made in some patients using the CES-D (Center for […] Depression Form) test, which measures current levels of emotional distress (Radloff, et al., The CES-D Scale: A Self Report Depression Scale for Research in the General Population Applied Psychological Measurement 1: 385-401, 1977); and the POMS (Profile of Mood States test, that assesses tension, depression, anger and confusion (McNair, et al., Profile of Mood States Manual;San Diego: Educational and Industrial Testing Service, 1971); both of these references are hereby incorporated by reference in their entirety. These tests are also given monthly during the treatment period. At the same time, patients also complete questionnaires that ask the patients to rate their appetite and hunger, and also to rate their tendency to eat in response to a variety of emotional and stressful triggers. The patients are also weighed monthly.

[2] = test system: obese, stressed patients; assay: questionnaire rating appetite and hunger; parameters: Appetite and Cravings: scale not given here
Source text: as §1, §2

[3] = test system: obese, stressed patients; assay: CES-D test of current levels of emotional distress in patients; settings: for CES-D Mood Score: over the treatment period
Source text: as §1, §2

[4] = test system: obese, stressed patients; assay: questionnaire rating tendency to eat in response to emotional and stressful triggers; parameters: Emotional Triggers: scale not given here; settings: for emotional triggers score: over the treatment period
Source text: as §1, §2

[5] = test system: patient experiencing stress induced symptoms; assay: treatment of patients with stress induced symptoms with serotonin precursors (Examples 16-23)
[6] = patient seven, 45 then 60 mg/day, Month 1, baseline 20
[7] = patient seven, 45 then 60 mg/day, Month 2, baseline 20
[8] = patient seven, 45 then 60 mg/day, Month 3, baseline 20
[9] = patient seven, 45 then 60 mg/day, Month 4, baseline 20
[10] = Example 19, food based preparation, in conjunction with a serotonin agonist
[11] = Example 23, food based preparation
[12] = Example 20, in conjunction with a stimulant of serotonin synthesis

SMILES: CN[C@H]1CC[C@@H](c2ccc(Cl)c(Cl)c2)c2ccccc21 [sertraline hydrochloride]
- weight at the end of 4 months ([1]; patient nine, 100 mg/day in divided doses, starting weight 92.3 kg): 72.7 kg
- weight at the end of 4 months ([1]; patient nine, 100 mg/day in divided doses, starting weight 203 pounds): 160 pounds
- weight at the end of 4 months ([1]; patient two, 50 rising to 200 mg/day, starting weight 78.6 kg): 72.7 kg
- weight at the end of 4 months ([1]; patient two, 50 rising to 200 mg/day, starting weight 173 pounds): 160 pounds
- Appetite and Cravings ([2]; patient two, 50 rising to 200 mg/day, Month 1, baseline 15): 12
- Appetite and Cravings ([2]; patient two, 50 rising to 200 mg/day, Month 2, baseline 15): 5
- Appetite and Cravings ([2]; patient two, 50 rising to 200 mg/day, Month 3, baseline 15): 3
- Appetite and Cravings ([2]; patient two, 50 rising to 200 mg/day, Month 4, baseline 15): 1
- Mood Scores CES-D ([3]; patient nine, 100 mg/day in divided doses, Month 4, baseline 9): 1
- Mood Scores CES-D ([3]; patient two, 50 rising to 200 mg/day, Month 1, baseline 20): 16
- Mood Scores CES-D ([3]; patient two, 50 rising to 200 mg/day, Month 2, baseline 20): 16
- Mood Scores CES-D ([3]; patient two, 50 rising to 200 mg/day, Month 3, baseline 20): 10
- Mood Scores CES-D ([3]; patient two, 50 rising to 200 mg/day, Month 4, baseline 20): 12
- Emotional Triggers ([4]; patient nine, 100 mg/day in divided doses, Month 4, baseline 12): 3
- Emotional Triggers ([4]; patient two, 50 rising to 200 mg/day, Month 1, baseline 22): 12
- Emotional Triggers ([4]; patient two, 50 rising to 200 mg/day, Month 2, baseline 22): 13
- Emotional Triggers ([4]; patient two, 50 rising to 200 mg/day, Month 3, baseline 22): 5
- Emotional Triggers ([4]; patient two, 50 rising to 200 mg/day, Month 4, baseline 22): 3

SMILES: CC(CN(C)C)CN1c2ccccc2CCc2ccccc21 (centres unmarked) [trimipramine maleate]
- weight at the end of 4 months ([1]; patient eight, 75 then 100 mg/day, starting weight 81.8 kg): 71.8 kg
- weight at the end of 4 months ([1]; patient eight, 75 then 100 mg/day, starting weight 180 pounds): 158 pounds
- Appetite and Cravings ([2]; patient eight, 75 then 100 mg/day, Month 1, baseline 11): 9
- Appetite and Cravings ([2]; patient eight, 75 then 100 mg/day, Month 2, baseline 11): 8
- Appetite and Cravings ([2]; patient eight, 75 then 100 mg/day, Month 3, baseline 11): 13
- Appetite and Cravings ([2]; patient eight, 75 then 100 mg/day, Month 4, baseline 11): 6
- Mood Scores CES-D ([3]; patient eight, 75 then 100 mg/day, Month 1, baseline 25): 22
- Mood Scores CES-D ([3]; patient eight, 75 then 100 mg/day, Month 2, baseline 25): 20
- Mood Scores CES-D ([3]; patient eight, 75 then 100 mg/day, Month 3, baseline 25): 15
- Mood Scores CES-D ([3]; patient eight, 75 then 100 mg/day, Month 4, baseline 25): 13
- Emotional Triggers ([4]; patient eight, 75 then 100 mg/day, Month 1, baseline 14): 8
- Emotional Triggers ([4]; patient eight, 75 then 100 mg/day, Month 2, baseline 14): 13
- Emotional Triggers ([4]; patient eight, 75 then 100 mg/day, Month 3, baseline 14): 6
- Emotional Triggers ([4]; patient eight, 75 then 100 mg/day, Month 4, baseline 14): 3

SMILES: NNCCc1ccccc1 [phenelzine sulfate]
- weight at the end of 4 months ([1]; patient seven, 45 then 60 mg/day, starting weight 83.6 kg): 79.1 kg
- weight at the end of 4 months ([1]; patient seven, 45 then 60 mg/day, starting weight 184 pounds): 174 pounds
- Appetite and Cravings ([2]; patient seven, 45 then 60 mg/day, Month 1, baseline 19): 15
- Appetite and Cravings ([2]; patient seven, 45 then 60 mg/day, Month 2, baseline 19): 8
- Appetite and Cravings ([2]; patient seven, 45 then 60 mg/day, Month 3, baseline 19): 13
- Appetite and Cravings ([2]; patient seven, 45 then 60 mg/day, Month 4, baseline 19): 12
- Mood Scores CES-D [3, 6]: 22
- Mood Scores CES-D [3, 7]: 20
- Mood Scores CES-D [3, 8]: 15
- Mood Scores CES-D [3, 9]: 14
- Emotional Triggers [4, 6]: 8
- Emotional Triggers [4, 7]: 13
- Emotional Triggers [4, 8]: 6
- Emotional Triggers [4, 9]: 7

SMILES: CN(C)CCCN1c2ccccc2CCc2ccccc21 [imipramine hydrochloride]
- weight after 4 months ([1]; starting weight 74.1 kg): 70.4 kg
- weight after 4 months ([1]; starting weight 163 pounds): 155 pounds
- Appetite and Cravings ([2]; patient five, intramuscular 75 mg/day, Month 1, baseline 15): 12
- Appetite and Cravings ([2]; patient five, intramuscular 75 mg/day, Month 2, baseline 15): 7
- Appetite and Cravings ([2]; patient five, intramuscular 75 mg/day, Month 3, baseline 15): 3
- Appetite and Cravings ([2]; patient five, intramuscular 75 mg/day, Month 4, baseline 15): 6
- Mood Scores CES-D ([3]; patient five, intramuscular 75 mg/day, Month 1, baseline 36): 34
- Mood Scores CES-D ([3]; patient five, intramuscular 75 mg/day, Month 2, baseline 36): 26
- Mood Scores CES-D ([3]; patient five, intramuscular 75 mg/day, Month 3, baseline 36): 21
- Mood Scores CES-D ([3]; patient five, intramuscular 75 mg/day, Month 4, baseline 36): 20
- Emotional Triggers ([4]; patient five, intramuscular 75 mg/day, Month 1, baseline 22): 15
- Emotional Triggers ([4]; patient five, intramuscular 75 mg/day, Month 2, baseline 22): 14
- Emotional Triggers ([4]; patient five, intramuscular 75 mg/day, Month 3, baseline 22): 6
- Emotional Triggers ([4]; patient five, intramuscular 75 mg/day, Month 4, baseline 22): 8

SMILES: N[C@@H](Cc1c[nH]c2ccc(O)cc12)C(=O)O [L-5-hydroxytryptophan]
- CES-D Mood Score [3, 10]: drops
- CES-D Mood Score [3, 11]: drops
- emotional triggers score [4, 10]: drops
- emotional triggers score [4, 11]: drops
- stress induced depression [5, 10]: reduced depression
- stress [5, 12]: decreased stress
- stress induced high blood pressure [5, 12]: lower blood pressure
- stress induced inability to concentrate [5, 11]: improved concentration
